Reference: article PMC4286029 (Inflammation Research, 2014)
Counter-ions that a name gives are not always drawn. One block for each compound: values may come before it.

How the values were obtained:
[1] = system: rat collagen-induced arthritis model; test: Collagen-induced arthritis in rats; format: in vivo, Lewis rats; conditions: MTX 0.3 mg/kg; for effect on paw swelling / arthritis symptoms, therapeutic administration: oral once daily from day 15, JTE-052 0.1, 1, 10 mg/kg
Method: CIA was induced in rats as previously described with some modifications. Briefly, type II collagen (Collagen Research Center, Saitama, Japan) was dissolved in 0.01 M acetic acid at 2 mg/mL, and the solution was emulsified in an equal volume of Freund’s incomplete adjuvant (Difco Laboratories, Detroit, MI). Lewis rats were immunized with 1 mL of the emulsion (1 mg of type II collagen) via ten intradermal injections on the back under anesthesia. The rats were then challenged with 0.2 mL of the emulsion injected into the base of the tail on day 8 under anesthesia. The test drugs were given orally once daily from day 1 to day 21 (preventive administration) or from day 15 to day 28 (therapeutic administration). After arthritis induction, the hind paw volume was measured by a water displacement method using a plethysmometer (Muromachi Kikai Co. Ltd., Tokyo, Japan). On day 22 or day 29, the rats were euthanized, and their hind paws were excised and X-rayed or processed for histological evaluation. Radiographs of the right hindlimbs were taken using a microfocal cone-beam X-ray CT scanner (MCT-CB100MF; Hitachi Medical Corporation, Tokyo, Japan). The severity of bone destruction was scored on a 3-point scale ranging from 0 to 2 for the following five joints: second metatarsal—second intertarsal joint, third metatarsal—third intertarsal joint, talus—central intertarsal joint, calcaneus—fourth intertarsal joint, and astragalo—tibial joint. For histological analysis, the formalin-fixed left hindlimbs were sectioned and stained with hematoxylin and eosin. The histology of the tarsal joints was evaluated by assessing the following parameters defined in the preliminary examination: inflammatory cell infiltration, synovial cell hyperplasia, cartilage destruction, and bone destruction. The severity of each histological change was scored on a 5-point scale ranging from 0 to 4. (Score 0: normal; Score 1: minimal, solitary (and very small) lesion; Score 2: slight, focal (and small) lesion; Score 3: moderate, scattered lesion; and Score 4: severe, extensive lesion).
(§1) . The hind paw volume (a) and body weight (b) were measured periodically. Images of hematoxylin and eosin staining (c) and radiographs of hindlimbs (e) are shown. Histological change (d) and radiographical change (f) were scored. The results are expressed as mean ± SD. ^# p < 0.05, ^## p < 0.01, versus vehicle by the Steel test
as §1, with “SD. *p < 0.05, **p < 0.01, versus vehicle by Dunnett’s test.” for “SD.”

[2] = system: IFN-α signaling (JAK1/Tyk2), Stat1 phosphorylation in hPBMCs; test: cells; conditions: Homo sapiens, 0.25 h, read-out: IC50, IFN-α cytokine signaling (JAK1/Tyk2)
Method: (§2) hPBMCs (3 × 10^6 cells/tube) were incubated with a test compound for 30 min at 37 °C, and then treated with IL-2 (100 ng/mL), IL-6 (100 ng/mL), IL-23 (100 ng/mL), IFN-α (100 ng/mL), or GM-CSF (1 ng/mL) for an additional 15 min. To terminate the stimulation, the cells were fixed with Fixation Buffer (BD Biosciences) for 10 min at 37 °C. The fixed cells were incubated with Perm Buffer II (BD Biosciences) for 30 min on ice and then incubated with fluorochrome-labeled anti-CD3, anti-CD4, or anti-phospho-Stat antibodies for 30 min at room temperature. The cytokine-induced Stat phosphorylation was analyzed and quantified using a Cytomics FC500 (Beckman Coulter Inc., Brea, CA). In the case of IL-23 stimulation, hPBMCs were precultured with 10 μg/mL phytohemagglutinin (PHA)-M (Sigma-Aldrich Co.) for 3 days to enhance their response to IL-23.
(§3) The phosphorylation levels of Stat5 (IL-2 and GM-CSF), Stat3 (IL-6 and IL-23), or Stat1 (IFN-α) in CD3^+CD4^+ cells (IL-2, IL-23, and IFN-α) or CD3^-CD4^+ cells (IL-6 and GM-CSF) were analyzed by flow cytometry. Data are presented as percentages of mean fluorescence intensity relative to vehicle (100 %) and non-stimulated control cells (0 %). Values are mean ± SEM. Three independent experiments were performed

[3] = system: IL-2 signaling (JAK1/JAK3), Stat5 phosphorylation in hPBMCs; test: cells; conditions: Homo sapiens, 0.25 h, read-out: IC50, IL-2 cytokine signaling (JAK1/JAK3)
Method: as §2, §3

[4] = system: kinases in KinaseProfiler; test: KinaseProfiler panel as a whole (selectivity for other kinases); format: biochemical; conditions: concentration of 1,000 nM
Method: […]; The selectivity of JTE-052 for other kinases was assessed using KinaseProfiler™ (Millipore Co. Ltd.). […].

[5] = system: IL-2-induced IFN-γ production; test: IL-2-induced IFN-γ production in mice; format: in vivo, DBA/1J mice; conditions: Mus musculus, po
Method: DBA/1J mice were dosed once via oral gavage with compounds. At 1 or 6 h after compound administration, the mice were injected intraperitoneally with 2 μg of recombinant mouse IL-2 and 10 μg of biotinylated anti-mouse IFN-γ capture antibody. After 6 h, the mice were euthanized, and blood was collected. Serum IFN-γ was quantified using a Mouse IFN-γ In Vivo Capture Assay Set (BD Biosciences).
After 1 or 6 h, they were injected with IL-2 and anti-mouse IFN-γ capture antibody. At 6 h after the injection, blood samples were collected, and the serum IFN-γ levels were measured.

[6] = system: rat collagen-induced arthritis model; design: method as in PMID 15683847; conditions: cited from earlier work

Compound: CN(Cc1cnc2nc(N)nc(N)c2n1)c1ccc(C(=O)N[C@@H](CCC(=O)O)C(=O)O)cc1 [MTX, Methotrexate hydrate]
effect on hind paw swelling and joint inflammation, preventive administration ([1]; oral once daily from day 1, JTE-052 0.1, 1, 10 mg/kg): significantly inhibited these symptoms
effect on paw swelling / arthritis symptoms, therapeutic administration [1]: did not attenuate all of these symptoms
effect on paw swelling / arthritis symptoms, therapeutic administration ([1]; listed as methotrexate): ineffective

IC50 [2]: 1.1 nM
IC50 [3]: 13 nM
Compound: N#CC[C@H](C1CCCC1)n1cc(-c2ncnc3[nH]ccc23)cn1 [Ruxolitinib, Ruxolitinib phosphate, reference compound]

Compound: C[C@@H]1CCN(C(=O)CC#N)C[C@@H]1N(C)c1ncnc2[nH]ccc12 [Tofacitinib, tofacitinib citrate, reference compound]
inhibition of other kinases in KinaseProfiler [4]: did not inhibit any of the kinases
ED50 ([5]; dosed 1 h prior to IL-2 injection): 1.1 mg/kg
ED50 ([5]; dosed 6 h prior to IL-2 injection): 13 mg/kg

Compound: C=CC[C@@H]1/C=C(\C)C[C@H](C)C[C@H](OC)[C@H]2O[C@@](O)(C(=O)C(=O)N3CCCC[C@H]3C(=O)O[C@H](/C(C)=C/[C@@H]3CC[C@@H](O)[C@H](OC)C3)[C@H](C)[C@@H](O)CC1=O)[C@H](C)C[C@@H]2OC [tacrolimus]
effect in rat collagen-induced arthritis model, administration after the onset of arthritis [6]: had no inhibitory effects
